Values of other authors, collected in PubChem BioAssay AID1259409 (Chemical Carcinogenesis Research Information System (CCRIS), 2018).
Several values for one entry are separate records, joined by “and”; a condition that tells them apart may be missing. Equal entries are not always repeated.

Test system: rodent chemically induced tumor inhibition, incidence and multiplicity
Assay: CCRIS tumor inhibitor studies

## N#Cc1ccc(C(c2ccc(C#N)cc2)n2cncn2)cc1
Carcinogen: NONE, Dose [Inhibitor]: 0, 0.1 MG/KG BW/D FOR 104 WK (STUDY DURATION: 104 WK), Route [Inhibitor]: NOT SPECIFIED, Species: RAT, Strain/Sex: SPRAGUE-DAWLEY/FEMALE, Target Tissue: Type of Lesion: REPRODUCTIVE TRACT (DISTAL): BENIGN GRANULAR CELL TUMOR, Promoter: NONE
  tumour outcome (control, treated, inhibition, significance): 7/60 (12%), 0/60 (0%), 100%, not calculated
Carcinogen: NONE, Dose [Inhibitor]: 0, 1 MG/KG BW/D FOR 104 WK (STUDY DURATION: 104 WK), Route [Inhibitor]: NOT SPECIFIED, Species: RAT, Strain/Sex: SPRAGUE-DAWLEY/FEMALE, Target Tissue: Type of Lesion: REPRODUCTIVE TRACT (DISTAL): BENIGN GRANULAR CELL TUMOR, Promoter: NONE
  tumour outcome (control, treated, inhibition, significance): 7/60 (12%), 0/60 (0%), 100%, not calculated
Carcinogen: NONE, Dose [Inhibitor]: 0, 10 MG/KG BW/D FOR 104 WK (STUDY DURATION: 104 WK), Route [Inhibitor]: NOT SPECIFIED, Species: RAT, Strain/Sex: SPRAGUE-DAWLEY/FEMALE, Target Tissue: Type of Lesion: REPRODUCTIVE TRACT (DISTAL): BENIGN GRANULAR CELL TUMOR, Promoter: NONE
  tumour outcome (control, treated, inhibition, significance): 7/60 (12%), 0/60 (0%), 100%, not calculated

## O=C1OC(c2ccc(O)cc2)Cc2cccc(O)c21 (stereo not drawn)
Carcinogen: AZOXYMETHANE [25843-45-2], Dose [Inhibitor]: 200 PPM IN DIET FOR 4 WK BEGINNING 1 WK PRIOR TO FIRST CARCINOGEN DOSE (STUDY DURATION: 35 WK), Route [Inhibitor]: ORAL, Species: RAT, Strain/Sex: F344/MALE, Target Tissue: Type of Lesion: COLON: ADENOMA, Dose [Carcinogen]: 15 MG/KG BW 1X/WK FOR 3 WK (STUDY DURATION: 35 WK), Promoter: NONE
  tumour outcome (control, treated, inhibition, significance): 6/28 (21%), 2/29 (7%), 67%, not significant
Carcinogen: AZOXYMETHANE [25843-45-2], Dose [Inhibitor]: 200 PPM IN DIET FOR 4 WK BEGINNING 1 WK PRIOR TO FIRST CARCINOGEN DOSE (STUDY DURATION: 35 WK), Route [Inhibitor]: ORAL, Species: RAT, Strain/Sex: F344/MALE, Target Tissue: Type of Lesion: COLON: CARCINOMA, Dose [Carcinogen]: 15 MG/KG BW 1X/WK FOR 3 WK (STUDY DURATION: 35 WK), Promoter: NONE
  tumour outcome (control, treated, inhibition, significance): 8/28 (29%), 10/29 (34%), -17%, not significant
Carcinogen: AZOXYMETHANE [25843-45-2], Dose [Inhibitor]: 200 PPM IN DIET FOR 4 WK BEGINNING 1 WK PRIOR TO FIRST CARCINOGEN DOSE (STUDY DURATION: 35 WK), Route [Inhibitor]: ORAL, Species: RAT, Strain/Sex: F344/MALE, Target Tissue: Type of Lesion: SMALL INTESTINE: CARCINOMA, Dose [Carcinogen]: 15 MG/KG BW 1X/WK FOR 3 WK (STUDY DURATION: 35 WK), Promoter: NONE
  tumour outcome (control, treated, inhibition, significance): 7/28 (25%), 4/29 (14%), 44%, not significant

## CN(C(=O)c1c(O)c2ccccc2n(C)c1=O)c1ccccc1
Carcinogen: N-METHYL-N-NITROSOUREA, 684-93-5, Dose [Inhibitor]: 0, 25 MG/KG/D IN DRINKING WATER FOR 12 MO BEGINNING 1 WK POST CARCINOGEN DOSE (STUDY DURATION: 12 MO), Route [Inhibitor]: ORAL, Species: RAT, Strain/Sex: LOBUND WISTAR/MALE, Target Tissue: Type of Lesion: SEMINAL VESICLE/PROSTATE: TUMOR, Dose [Carcinogen]: 30 MG/KG ONCE AT 90 D OF AGE, Promoter: TESTOSTERONE PROPIONATE, 57-85-2
  tumour outcome (control, treated, inhibition, significance): 90%, 40%, 56%, not calculated

## Oc1c(F)c(F)cc(F)c1F
Carcinogen: BENZO[A]PYRENE, 50-32-8, Dose [Inhibitor]: 0.03 MMOL/G OF DIET DAILY STARTING 7 D BEFORE AND CONTINUING THROUGH 3 D AFTER CARCINOGEN TREATMENT FOLLOWED BY OBSERVAT, Route [Inhibitor]: ORAL, Species: MOUSE, Strain/Sex: ICR/FEMALE, Target Tissue: Type of Lesion: FORESTOMACH: NEOPLASM, Dose [Carcinogen]: 1 MG IN 0.2 ML CORN OIL 2/WK FOR 4 WK, Promoter: NONE USED
  tumour outcome (control, treated, inhibition, significance): 100%, 95%, 5%, not significant and 97%, 84%, 13%, not significant

## CC(C)(C)NC(=O)[C@H]1CC[C@H]2[C@@H]3CC[C@H]4NC(=O)C=C[C@]4(C)[C@H]3CC[C@]12C
Carcinogen: N-BUTYL-N-(4-HYDROXYBUTYL)NITROSAMINE, 3817-11-6, Dose [Inhibitor]: 0, 2 MG/KG 2/WK FOR 11 WK BEGINNING POST CARCINOGEN TREATMENT (STUDY DURATION: 21WK), Route [Inhibitor]: ORAL, Species: RAT, Strain/Sex: WISTAR/MALE, Target Tissue: Type of Lesion: URINARY BLADDER: CARCINOMA, Dose [Carcinogen]: 0.05% IN DRINKING WATER FOR 10 WK, Promoter: NONE USED
  tumour outcome (control, treated, inhibition, significance): 15/17 (88%), 12/17 (71%), 19%, not significant
Carcinogen: N-BUTYL-N-(4-HYDROXYBUTYL)NITROSAMINE, 3817-11-6, Dose [Inhibitor]: 0, 2 MG/KG 2/WK FOR 13 WK BEGINNING POST CARCINOGEN TREATMENT (STUDY DURATION: 20WK), Route [Inhibitor]: ORAL, Species: RAT, Strain/Sex: WISTAR/MALE, Target Tissue: Type of Lesion: URINARY BLADDER: CARCINOMA, Dose [Carcinogen]: 0.05% IN DRINKING WATER FOR 7 WK, Promoter: NONE USED
  tumour outcome (control, treated, inhibition, significance): 25/39 (64%), 9/20 (45%), 30%, not significant
Carcinogen: N-BUTYL-N-(4-HYDROXYBUTYL)NITROSAMINE, 3817-11-6, Dose [Inhibitor]: 0, 4 MG/KG 2/WK FOR 13 WK BEGINNING POST CARCINOGEN TREATMENT (STUDY DURATION: 20 WK), Route [Inhibitor]: ORAL, Species: RAT, Strain/Sex: WISTAR/MALE, Target Tissue: Type of Lesion: URINARY BLADDER: CARCINOMA, Dose [Carcinogen]: 0.05% IN DRINKING WATER FOR 7 WK, Promoter: NONE USED
  tumour outcome (control, treated, inhibition, significance): 25/39 (64%), 9/20 (45%), 30%, not significant
Carcinogen: N-BUTYL-N-(4-HYDROXYBUTYL)NITROSAMINE, 3817-11-6, Dose [Inhibitor]: 0, 8 MG/KG 2/WK FOR 13 WK BEGINNING POST CARCINOGEN TREATMENT (STUDY DURATION: 20 WK), Route [Inhibitor]: ORAL, Species: RAT, Strain/Sex: WISTAR/MALE, Target Tissue: Type of Lesion: URINARY BLADDER : CARCINOMA, Dose [Carcinogen]: 0.05% IN DRINKING WATER FOR 7 WK, Promoter: NONE USED
  tumour outcome (control, treated, inhibition, significance): 25/39 (64%), 8/20 (40%), 38%, not significant
Carcinogen: N-METHYL-N-NITROSOUREA, 684-93-5, Dose [Inhibitor]: 0.09 MG/200 G BW/D FOR 2 MO BEGINNING 9.5 MO POST-CARCINOGEN DOSE (STUDY DURATION: 11.5 MO), Route [Inhibitor]: GAVAGE, Species: RAT, Strain/Sex: WISTAR/MALE, Target Tissue: Type of Lesion: PROSTATE: ADENOCARCINOMA, Dose [Carcinogen]: 35 MG/KG BW ONCE AT INITIATION OF STUDY, Promoter: TESTOSTERONE PROPIONATE, 57-85-2
  tumour outcome (control, treated, inhibition, significance): 9/14 (64%), 1/10 (10%), 84%, not determined

## Clc1ccccc1C(c1ccccc1)(c1ccccc1)n1ccnc1
Carcinogen: 3-METHYLCHOLANTHRENE, 56-49-5, Dose [Inhibitor]: 0, 2.9 UMOL IN 0.1 ML ACETONE 1 HR PRIOR TO CARCINOGEN DOSE 2/WK FOR 16 WK (STUDY DURATION: 16 WK), Route [Inhibitor]: DERMAL, Species: MOUSE, Strain/Sex: BALB/FEMALE, Target Tissue: Type of Lesion: SKIN: TUMORS, Dose [Carcinogen]: 1.8 UMOL IN 0.2 ML ACETONE 2/WK FOR 16 WK, Promoter: NONE USED
  tumour outcome (control, treated, inhibition, significance): 100%, 70%, 30%, p<0.05

## NCCCCCC(=O)O
Carcinogen: N-ETHYL-N-NITROSOUREA, 759-73-9, Dose [Inhibitor]: 0, 1000 MG/L IN DRINKING WATER FOR 12 MO ADMINISTERED TO CARCINOGEN-TREATED MOTHERS (STUDY DURATION: 12 MO), Route [Inhibitor]: ORAL, Species: RAT, Strain/Sex: ALBINO/MALE, FEMALE, Target Tissue: Type of Lesion: PERIPHERAL NERVES: TUMOR, Dose [Carcinogen]: 75 MG/KG BW ADMINISTERED INTRAPERITONEALLY TO MOTHERS 21 D POST CONCEPTION, Promoter: NONE USED
  tumour outcome (control, treated, inhibition, significance): 24/63 (38%), 7/33 (21%), 45%, not significant
Carcinogen: N-ETHYL-N-NITROSOUREA, 759-73-9, Dose [Inhibitor]: 0, 1000 MG/L IN DRINKING WATER FOR 12 MO ADMINISTERED TO OFFSPRING OF CARCINOGEN-TREATED MOTHERS (STUDY DURATION: 12 MO), Route [Inhibitor]: ORAL, Species: RAT, Strain/Sex: ALBINO/MALE, FEMALE, Target Tissue: Type of Lesion: BRAIN: TUMOR, Dose [Carcinogen]: 75 MG/KG BW ADMINISTERED INTRAPERITONEALLY TO MOTHERS 21 D POST CONCEPTION, Promoter: NONE USED
  tumour outcome (control, treated, inhibition, significance): 53/63 (84%), 21/33 (64%), 24%, p<0.05
Carcinogen: N-ETHYL-N-NITROSOUREA, 759-73-9, Dose [Inhibitor]: 0, 1000 MG/L IN DRINKING WATER FOR 12 MO ADMINISTERED TO OFFSPRING OF CARCINOGEN-TREATED MOTHERS (STUDY DURATION: 12 MO), Route [Inhibitor]: ORAL, Species: RAT, Strain/Sex: ALBINO/MALE, FEMALE, Target Tissue: Type of Lesion: KIDNEY: TUMOR, Dose [Carcinogen]: 75 MG/KG BW ADMINISTERED INTRAPERITONEALLY TO MOTHERS 21 D POST CONCEPTION, Promoter: NONE USED
  tumour outcome (control, treated, inhibition, significance): 23/63 (37%), 7/33 (21%), 43%, not significant
Carcinogen: N-ETHYL-N-NITROSOUREA, 759-73-9, Dose [Inhibitor]: 0, 1000 MG/L IN DRINKING WATER FOR 12 MO ADMINISTERED TO OFFSPRING OF CARCINOGEN-TREATED MOTHERS (STUDY DURATION: 12 MO), Route [Inhibitor]: ORAL, Species: RAT, Strain/Sex: ALBINO/MALE, FEMALE, Target Tissue: Type of Lesion: SPINAL CHORD: TUMOR, Dose [Carcinogen]: 75 MG/KG BW ADMINISTERED INTRAPERITONEALLY TO MOTHERS 21 D POST CONCEPTION, Promoter: NONE USED
  tumour outcome (control, treated, inhibition, significance): 17/63 (27%), 15/33 (45%), -67%, not significant
